Assays:
[1] = test system: white blood cells (WBC), neutrophils and platelets; test: White blood cells, neutrophils and platelets count (Sysmex); format: in vivo, nude rat
Source text: The white blood cells (WBC), neutrophils and platelets were counted using a Sysmex (XT-2000i).
Blood was collected into commercially prepared EDTA coated microtubes (BD Microtainer, cat #365975).

[2] = Tolerability in SJSA-1 tumor-bearing nude rat (body weight, survival); format: in vivo
Method: Subcutaneous tumors were induced by concentrating 1.0×10^7 SJSA-1 cells in 50% Matrigel® and injecting in the right flank of Harlan nude rats.
[formula] Similarly, the body-weight (BW) of the animal was measured three times per week allowing calculation at any particular time-point relative to the day of initiation of treatment (day 0) of the percentage change in BW (Δ % BW).

Rat Bbc3 (PUMA) = test: mRNA in situ hybridization of host tissues; format: in vivo; details: i.v. 20 mg/kg
Method: In situ hybridization was performed using the QuantiGene ViewRNA FFPE Assay kit (Affymetrix/Panomics) following the manufacturer's protocol. Gene-specific probe sets for rat Ubc (Ubiquitin C) and Bbc3 (PUMA) mRNAs were custom-designed and synthesized by Affymetrix. Bbc3 probes were used in type 1/Fast Red and Ubc probes were used in type 6/Fast Blue. Slides were processed strictly following the QuantiGene protocol. […] Briefly, five micrometer sections were cut, fixed in 10% formaldehyde, deparaffinized and rehydrated. In order to increase accessibility to mRNAs, slides were then boiled in pre-treatment solution (Affymetrix) and digested with protease QF (Affymetrix) at optimal conditions. Sections were then hybridized for 3 h at 40° C. with custom-designed QuantiGene ViewRNA probes against Bbc3 and the control gene Ubc. A no-probe sample was utilized as a negative control per the Affymetrix manual's recommendations. […] LP-AP type 6 probe detection of signal was done with Fast Blue substrate (blue dots, Cy5 fluorescence) for 30 mn at RT in the dark, followed by LP-AP type 1 probe detection of signal with Fast Red Substrate (red dots, Cy3 fluorescence) for 30 mn at 40° C. […]

SJSA-1 tumor = test: Efficacy on SJSA-1 tumor-bearing nude rat (tumor volume); format: in vivo
Method: Subcutaneous tumors were induced by concentrating 1.0×10^7 SJSA-1 cells in 50% Matrigel® and injecting in the right flank of Harlan nude rats. Efficacy experiment could start 14 days post cell injection. […] The animals were treated either at a high dose (20 mg/kg i.v. or 27 mg/kg p.o.) once every 3 weeks (q3w) or at a high dose (15 mg/kg p.o.) followed 24 h later by a daily low dose treatment (3 mg/kg p.o., 2 weeks on/2 weeks off).
The tumor volume (TVol) and body-weight (BW) of the animal were measured three times per week allowing calculation at any particular time-point relative to the day of initiation of treatment (day 0) of the percentage change in TVol (Δ% TVol). Tumor response was quantified by the change in tumor volume (endpoint minus starting value in mm^3) as the T/C i.e.
[formula] In the case of a tumor regression or to assess the percentage of change in TVol, the tumor response was quantified by the percentage of regression of the starting TVol, ie

[3] = test system: melanoma patient derived xenograft (PDX); test: Efficacy in melanoma patient derived xenograft bearing rat (per os); format: in vivo; details: 27 mg/kg q3w per os
Source text: The same experiments were repeated with melanoma PTX bearing rat.

bone marrow = test: Bone marrow depletion and recovery after i.v. treatment (sternum sections); format: in vivo, rat; details: i.v. 20 mg/kg
Method: (§1) All tissues were processed to FFPE according to routine procedures and following fixation, rat sternum was decalcified in Citrate/EDTA buffer for 5 days, with buffer exchange every 24 h. Sections were cut at 3 μm using a microtome. p21 and cleaved Caspase-3 immunohistochemistry was performed on a Ventana Discovery XT automated immunostainer using the OmniMap anti Mouse or Rabbit HRP secondary reagent and the ChromoMap DAB chromogen system (Ventana/Roche Diagnostics GmbH, Mannheim, Germany). Antigen retrieval was done by using Cell Conditioning Discovery CC1 (Ventana/Roche Diagnostics) at mild (95° 8 min+100° 20 min, for cleaved Caspase-3) or standard (95° 8 min+100° 36 min, for p21) conditions. The primary antibody was applied manually at the desired dilution in Dako antibody diluent, followed by incubation for 1 hour at room temperature. Corresponding negative controls were incubated with AbD only. Counterstaining of sections was done using hematoxylin (Ventana/Roche Diagnostics). After the automated staining run, slides were dehydrated in a graded series of ethanol, cleared in xylene and mounted with Pertex mounting medium.

Cleaved Caspase-3 = test: Caspase-3 activation in SJSA-1 tumor (immunohistochemistry); format: in vivo, nude rat; details: higher single dose; 24 h post-treatment
Method: as §1

[4] = test system: p21, Mdm2 and cleaved Caspase-3 in jejunum and bone marrow (sternum); test: Immunohistochemistry of host tissues after i.v. treatment; format: in vivo, rat; details: i.v. 20 mg/kg
Method: Sections were cut at 3 μm using a microtome. p21 and cleaved Caspase-3 immunohistochemistry was performed on a Ventana Discovery XT automated immunostainer using the OmniMap anti Mouse or Rabbit HRP secondary reagent and the ChromoMap DAB chromogen system (Ventana/Roche Diagnostics GmbH, Mannheim, Germany). […] The primary antibody was applied manually at the desired dilution in Dako antibody diluent, followed by incubation for 1 hour at room temperature. Corresponding negative controls were incubated with AbD only. Counterstaining of sections was done using hematoxylin (Ventana/Roche Diagnostics). After the automated staining run, slides were dehydrated in a graded series of ethanol, cleared in xylene and mounted with Pertex mounting medium.

[5] = i.v. q3w 20 mg/kg, after the second treatment
[6] = p.o. q3w 27 mg/kg, before the second treatment
[7] = i.v. q3w 20 mg/kg, three weeks post first treatment

## COc1ncc(-c2nc3c(n2C(C)C)[C@H](c2ccc(Cl)cc2)N(c2cc(Cl)cn(C)c2=O)C3=O)c(OC)n1 [Compound A, (S)-5-(5-Chloro-1-methyl-2-oxo-1,2-dihydro-pyridin-3-yl)-6-(4-chloro-phenyl)-2-(2,4-dimethoxy-pyrimidin-5-yl)-1-isopropyl-5,6-dihydro-1H-pyrrolo[3,4-d]imidazol-4-one]
[1]; i.v. q3w 18.2 mg/kg, day 21 post second treatment
  recovery of WBCs, neutrophils and platelets: only partially recovered
[1]; i.v. q3w 20 mg/kg, after the first treatment
  WBCs, neutrophils and platelets: dramatic decrease
[1]; [5]
  WBCs, neutrophils and platelets: extremely low level close to 0
[1]; i.v. q3w 20 mg/kg, day 21 post treatment, most rats
  recovery of WBCs, neutrophils and platelets: only partially recovered
[1]; i.v. q3w 13.7 and 18.2 mg/kg, after the first treatment
  WBCs, neutrophils and platelets: strong decrease
[1]; i.v. q3w 13.7 and 18.2 mg/kg, day 21 post treatment
  recovery of WBCs, neutrophils and platelets: fully recovered
[1]; p.o. q3w 20 mg/kg, before the second treatment
  recovery of WBCs and platelets: fully recovered
[1]; [6]
  recovery of WBCs: only partially
  recovery of platelets: fully recovered
[1]; p.o. q3w 20 and 27 mg/kg
  WBCs, neutrophils and platelets: dose-dependent decrease
[2]; i.v. q3w 13.7 mg/kg, week 1 post treatment
  ABW (%): 2.7 ± 0.9%
[2]; i.v. q3w 13.7 mg/kg, week 2 post treatment
  ABW (%): 7.5 ± 1.0%
[2]; i.v. q3w 18.2 mg/kg, week 1 post treatment
  ABW (%): 2.5 ± 2.6%
[2]; i.v. q3w 18.2 mg/kg, week 2 post treatment
  ABW (%): 9.1 ± 1.9%
[2]; i.v. q3w 18.2 mg/kg, week 3 post treatment
  ABW (%): 11.9 ± 2.7%
[2]; i.v. q3w 18.2 mg/kg, week 5 post treatment
  ABW (%): 10.6 ± 2.3%
[2]; i.v. q3w 18.2 mg/kg, week 6 post treatment
  ABW (%): 5.9 ± 7.9%
[2]; single i.v. 20 mg/kg, day 9 post treatment
  sacrifice because of excessive body weight (BW) loss: One rat had to be sacrificed
Rat Bbc3 (PUMA); jejunum section, post last treatment
  time of maximum increase in Puma (Bbc3) mRNA: 3 h
Rat Bbc3 (PUMA); post treatment
  time of return of Puma mRNA to baseline: 7 days
SJSA-1 tumor; [5]
  tumor regression: 100%
SJSA-1 tumor; [7]
  rats with partial response (more than 50% regression): 2
  tumor regression on average: 6%
SJSA-1 tumor; p.o. q3w 27 mg/kg, after two cycles (after the second treatment)
  SJSA-1 tumor regression: 27%
[3]
  efficacy of intermittent dosing: showed efficacy
Bone marrow; 14 days post treatment
  bone marrow state: severe bone marrow depletion
Bone marrow; day 22
  bone marrow recovery: partial recovery
Cleaved Caspase-3
  caspase-3 activation in tumor: strong caspase-3 activation
[4]; jejunum and bone marrow (sternum)
  time of maximum increase in p21, Mdm2 and cleaved Caspase-3: 3 h
[4]; post treatment
  time of return of all staining to baseline: 7 days

— patent US11419870B2, “Intermittent dosing of MDM2 inhibitor” (Novartis AG, priority 2014, dated 2022)
